# Assay results reported in ChEMBL document CHEMBL1201862, “PubChem BioAssay data set” (2004).
#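 Method: 48-hour compound exposure of cells in 96-well plates, five concentrations, linear interpolation of endpoints. GI50: concentration for 50% inhibition of growth.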 Activity calls are given as the source filed them. Rule as the data show it: active = GI50 up to about 1.1 µM and inactive = higher.
# How the values were obtained:
# Assay in all cases: inhibition of tumour cell growth, NCI panel, 48 h
# HCC 2998 = test system: HCC 2998
# ACHN = test system: ACHN
# OVCAR-3 = test system: OVCAR-3
# LOX IMVI = test system: LOX IMVI
# OVCAR-8 = test system: OVCAR-8
# UACC-257 = test system: UACC-257
# HCT-116 = test system: HCT-116
# NCI-H522 = test system: NCI-H522
# DU-145 = test system: DU-145
# HT-29 = test system: HT-29
# PC-3 = test system: PC-3
# EKVX = test system: EKVX
# SF-539 = test system: SF-539
# IGROV-1 = test system: IGROV-1
# U-251 = test system: U-251
# 786-0 = test system: 786-0
# SR = test system: SR
# A498 = test system: A498
# OVCAR-4 = test system: OVCAR-4
# NCI-H226 = test system: NCI-H226
SMILES,GI50 (HCC 2998),GI50 (ACHN),GI50 (OVCAR-3),GI50 (LOX IMVI),GI50 (OVCAR-8),GI50 (UACC-257),GI50 (HCT-116),GI50 (NCI-H522),GI50 (DU-145),GI50 (HT-29),GI50 (PC-3),GI50 (EKVX),GI50 (SF-539),GI50 (IGROV-1),GI50 (U-251),GI50 (786-0),GI50 (SR),GI50 (A498),GI50 (OVCAR-4),GI50 (NCI-H226)
Cc1nc2ccccc2c(=O)n1NC(=O)c1ccccc1[N+](=O)[O-],> 100 µM (inactive),> 100 µM (inactive),> 100 µM (inactive),> 100 µM (inactive),> 10 µM (inactive),> 100 µM (inactive),> 100 µM (inactive),> 100 µM (inactive),> 100 µM (inactive),> 100 µM (inactive),> 100 µM (inactive),71.4 µM (inactive),> 100 µM (inactive),> 100 µM (inactive),> 100 µM (inactive),> 100 µM (inactive),> 100 µM (inactive),> 100 µM (inactive),> 100 µM (inactive),> 100 µM (inactive)
COC(=O)C1=C(OC(=O)/C(=C/c2ccccc2)c2ccccc2)C(C(=O)OC)[C@@]2(O)[C@@H](C(=O)OC)[C@H](C)C[C@@H]1[C@@H]2C(=O)OC (stereo not given in full),> 100 µM (inactive),> 100 µM (inactive),> 100 µM (inactive),> 100 µM (inactive),> 100 µM (inactive),> 100 µM (inactive),> 100 µM (inactive),45.4 µM (inactive),> 100 µM (inactive),> 100 µM (inactive),> 100 µM (inactive),> 100 µM (inactive),> 100 µM (inactive),> 100 µM (inactive),> 100 µM (inactive),> 100 µM (inactive),> 100 µM (inactive),> 100 µM (inactive),> 100 µM (inactive),> 100 µM (inactive)
Cc1coc2c1C(=O)C(=O)c1c-2ccc2c1CCCC2(C)C [TANSHINONE IIA],4.06 µM (inactive),7.33 µM (inactive),0.303 µM (active),0.342 µM (active),6.35 µM (inactive),0.771 µM (active),1.55 µM (inactive),1.54 µM (inactive),2.52 µM (inactive),10.5 µM (inactive),2.34 µM (inactive),30.3 µM (inactive),2.42 µM (inactive),2.04 µM (inactive),2.51 µM (inactive),1.87 µM (inactive),0.757 µM (active),7.74 µM (inactive),10.6 µM (inactive),2.29 µM (inactive)
CCc1[nH]nc(C(N)=O)c1/N=N/N(C)C,> 100 µM (inactive),36.5 µM (inactive),> 100 µM (inactive),43.2 µM (inactive),73.1 µM (inactive),> 100 µM (inactive),72.1 µM (inactive),37.3 µM (inactive),46.2 µM (inactive),> 100 µM (inactive),> 100 µM (inactive),57.5 µM (inactive),78.7 µM (inactive),34.8 µM (inactive),48.3 µM (inactive),89.7 µM (inactive),10.1 µM (inactive),> 100 µM (inactive),> 100 µM (inactive),84.1 µM (inactive)
O=C1Cc2c(-c3cccs3)cc(-c3ccccc3)nc2-c2ccccc2N1,47.3 µM (inactive),50.2 µM (inactive),33.4 µM (inactive),36.5 µM (inactive),1.45 µM (inactive),> 100 µM (inactive),32.9 µM (inactive),27.8 µM (inactive),> 100 µM (inactive),10.8 µM (inactive),47.1 µM (inactive),33.7 µM (inactive),22.7 µM (inactive),13.7 µM (inactive),> 10 µM (inactive),21.9 µM (inactive),> 100 µM (inactive),> 100 µM (inactive),0.855 µM (active),81.8 µM (inactive)
COc1cccc2c1C(=O)c1c(O)c3c(c(O)c1C2=O)C[C@@](O)(C(=O)CO)C[C@@H]3OC1CC2C(OCN3CN2COC2C(C)OC(O[C@H]4C[C@](O)(C(=O)CO)Cc5c(O)c6c(c(O)c54)C(=O)c4c(OC)cccc4C6=O)CC23)C(C)O1 (stereo not given in full),0.0274 µM (active),0.0634 µM (active),0.112 µM (active),0.0134 µM (active),0.0376 µM (active),0.05 µM (active),0.0289 µM (active),0.0218 µM (active),0.0265 µM (active),0.0428 µM (active),0.0929 µM (active),0.203 µM (active),0.0377 µM (active),0.0266 µM (active),0.0186 µM (active),0.02 µM (active),0.00119 µM (active),0.0559 µM (active),0.237 µM (active),0.0665 µM (active)
O=C1OCC(c2ccc(Cl)cc2)=C1Cl,29 µM (inactive),42.1 µM (inactive),20.7 µM (inactive),23.2 µM (inactive),25.5 µM (inactive),40 µM (inactive),13.9 µM (inactive),18.5 µM (inactive),49.5 µM (inactive),44.7 µM (inactive),22.1 µM (inactive),28.8 µM (inactive),38 µM (inactive),< 0.01 µM (active),35.8 µM (inactive),17.7 µM (inactive),16.7 µM (inactive),82 µM (inactive),44.8 µM (inactive),55.8 µM (inactive)
CCn1c(SCC(=O)NNC(=S)Nc2ccc(F)cc2)nc2ccccc2c1=O,> 100 µM (inactive),> 100 µM (inactive),> 100 µM (inactive),> 100 µM (inactive),> 100 µM (inactive),> 100 µM (inactive),> 100 µM (inactive),48 µM (inactive),> 100 µM (inactive),> 100 µM (inactive),66.1 µM (inactive),> 100 µM (inactive),> 100 µM (inactive),> 100 µM (inactive),> 100 µM (inactive),> 100 µM (inactive),49.4 µM (inactive),> 100 µM (inactive),63 µM (inactive),> 100 µM (inactive)
COc1ccc(/C=N/n2c(-c3ccccc3)n[nH]c2=O)c(OC)c1,> 100 µM (inactive),29 µM (inactive),79.6 µM (inactive),47.4 µM (inactive),29.9 µM (inactive),> 100 µM (inactive),54.5 µM (inactive),> 52.2 µM (inactive),> 100 µM (inactive),26.6 µM (inactive),50.1 µM (inactive),38.5 µM (inactive),28.4 µM (inactive),36.9 µM (inactive),40.6 µM (inactive),30.5 µM (inactive),> 100 µM (inactive),31.6 µM (inactive),27 µM (inactive),51.1 µM (inactive)
COC(=O)[C@@H]1C[C@@]2(C3C=CN(C(=O)C(F)(F)F)C=C3)c3ccccc3N(C(=O)C(F)(F)F)[C@H]2N1C(=O)OC,57.8 µM (inactive),> 100 µM (inactive),90.8 µM (inactive),44.5 µM (inactive),> 100 µM (inactive),> 100 µM (inactive),> 100 µM (inactive),26.8 µM (inactive),> 100 µM (inactive),> 10 µM (inactive),70.8 µM (inactive),> 100 µM (inactive),> 100 µM (inactive),> 100 µM (inactive),43 µM (inactive),54 µM (inactive),53.8 µM (inactive),> 100 µM (inactive),93.3 µM (inactive),> 100 µM (inactive)
C[C@]12CC[C@@H]3c4ccc(OC(=O)c5ccccc5)cc4CC[C@H]3[C@@H]1CCC2OC(=O)c1cccc2c(=O)c3ccccc3[nH]c12 (stereo not given in full),15.2 µM (inactive),22.3 µM (inactive),26.1 µM (inactive),16.3 µM (inactive),18.3 µM (inactive),20.3 µM (inactive),16.4 µM (inactive),23.3 µM (inactive),19.8 µM (inactive),7.21 µM (inactive),13.4 µM (inactive),9.38 µM (inactive),16.6 µM (inactive),16.5 µM (inactive),15.7 µM (inactive),17.5 µM (inactive),25.8 µM (inactive),26 µM (inactive),15.6 µM (inactive),17.9 µM (inactive)
COc1nc2c(c(=O)n1C)NC(C(O)C(O)CO)C=N2 (stereo not given),> 10 µM (inactive),> 10 µM (inactive),> 10 µM (inactive),> 10 µM (inactive),> 10 µM (inactive),> 10 µM (inactive),> 10 µM (inactive),> 10 µM (inactive),> 10 µM (inactive),> 10 µM (inactive),> 10 µM (inactive),> 10 µM (inactive),> 10 µM (inactive),> 10 µM (inactive),> 10 µM (inactive),> 10 µM (inactive),> 10 µM (inactive),> 10 µM (inactive),> 10 µM (inactive),> 10 µM (inactive)
N[C@H](C(=O)O)[C@@H]1CC(Br)=NO1,22.7 µM (inactive),8.22 µM (inactive),16.5 µM (inactive),> 100 µM (inactive),> 25 µM (inactive),54.2 µM (inactive),5.6 µM (inactive),> 32 µM (inactive),5.57 µM (inactive),10.1 µM (inactive),23.6 µM (inactive),10.9 µM (inactive),5.21 µM (inactive),19 µM (inactive),10.4 µM (inactive),13 µM (inactive),3.66 µM (inactive),18.1 µM (inactive),21.9 µM (inactive),> 96.6 µM (inactive)
